What was measured:
Experiment in all cases: relative viability (nuclei count vs DMSO), 5 days (fraction); higher = more cells survive
PAC-1 + AZD7762 = compound: C=CCc1cccc(/C=N/NC(=O)CN2CCN(Cc3ccccc3)CC2)c1O [PAC-1] + NC(=O)Nc1cc(-c2cccc(F)c2)sc1C(=O)N[C@H]1CCCNC1 [AZD7762] (partner 0.2 µM)
In short: (§1)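 Lung cancer cell lines were seeded in 1536-well plates and dosed by pin tool the next day, with either a single drug or a fixed anchor-drug dose combined with five library-drug doses (not always all listed) spaced in √10 steps. Five days later, one step fixed the cells and stained their nuclei (final 0.05% Triton X-100, 1% formaldehyde, 1 ug/ml Hoechst), and nuclei were counted on 4× images. Relative viability is the nuclei count in treated wells divided by the count in vehicle wells, and each value is the median of duplicate plates.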

BMX-IN-1 + Linsitinib = compound: C=CC(=O)Nc1cc(-n2c(=O)ccc3cnc4ccc(-c5ccc(NS(C)(=O)=O)cc5)cc4c32)ccc1C [BMX-IN-1] + C[C@]1(O)C[C@@H](c2nc(-c3ccc4ccc(-c5ccccc5)nc4c3)c3c(N)nccn32)C1 [Linsitinib] (partner 1 µM)
In short: as §1

PAC-1 + Luminespib = compound: C=CCc1cccc(/C=N/NC(=O)CN2CCN(Cc3ccccc3)CC2)c1O [PAC-1] + CCNC(=O)c1noc(-c2cc(C(C)C)c(O)cc2O)c1-c1ccc(CN2CCOCC2)cc1 [Luminespib] (partner 0.01 µM)
In short: as §1

PAC-1 + OSI-027 = compound: C=CCc1cccc(/C=N/NC(=O)CN2CCN(Cc3ccccc3)CC2)c1O [PAC-1] + COc1cccc2cc(-c3nc([C@H]4CC[C@H](C(=O)O)CC4)n4ncnc(N)c34)[nH]c12 [OSI-027] (partner 0.5 µM)
In short: as §1

PAC-1 + Pemetrexed = compound: C=CCc1cccc(/C=N/NC(=O)CN2CCN(Cc3ccccc3)CC2)c1O [PAC-1] + Nc1nc2[nH]cc(CCc3ccc(C(=O)N[C@@H](CCC(=O)O)C(=O)O)cc3)c2c(=O)[nH]1 [Pemetrexed] (partner 0.2 µM)
In short: as §1

Cell Line	relative viability (PAC-1 + AZD7762; first compound 0.02 µM)	relative viability (PAC-1 + AZD7762; first compound 0.06325 µM)	relative viability (PAC-1 + AZD7762; first compound 0.2 µM)	relative viability (PAC-1 + AZD7762; first compound 2 µM)	relative viability (BMX-IN-1 + Linsitinib; first compound 0.02 µM)	relative viability (BMX-IN-1 + Linsitinib; first compound 0.2 µM)	relative viability (BMX-IN-1 + Linsitinib; first compound 0.6325 µM)	relative viability (BMX-IN-1 + Linsitinib; first compound 2 µM)	relative viability (PAC-1 + Luminespib; first compound 0.02 µM)	relative viability (PAC-1 + Luminespib; first compound 0.06325 µM)	relative viability (PAC-1 + Luminespib; first compound 0.2 µM)	relative viability (PAC-1 + Luminespib; first compound 2 µM)	relative viability (PAC-1 + OSI-027; first compound 0.02 µM)	relative viability (PAC-1 + OSI-027; first compound 0.06325 µM)	relative viability (PAC-1 + OSI-027; first compound 0.2 µM)	relative viability (PAC-1 + OSI-027; first compound 2 µM)	relative viability (PAC-1 + Pemetrexed; first compound 0.02 µM)	relative viability (PAC-1 + Pemetrexed; first compound 0.06325 µM)	relative viability (PAC-1 + Pemetrexed; first compound 0.2 µM)	relative viability (PAC-1 + Pemetrexed; first compound 2 µM)
NCI-H2087	1.36	1.4	1.09	1.44	1.14	1.11	1.34	1.1	0.174	0.243	0.21	0.182	0.467	0.58	0.401	0.497	0.675	0.641	0.663	0.724
NCI-H2126	1.04	0.993	0.963	1.05	0.74	0.659	0.747	0.678	0.989	0.889	0.93	0.948	0.725	0.717	0.712	0.687	0.679	0.722	0.755	0.654
NCI-H2347	0.825	0.756	0.675	0.902	1.1	1.02	1.04	0.958	0.302	0.427	0.536	0.583	0.4	0.395	0.38	0.46	0.412	0.435	0.41	0.46
NCI-H2405	0.648	0.828	0.86	0.802	1.01	0.875	0.975	0.921	0.611	0.652	0.656	0.789	0.65	0.638	0.598	0.71	1.08	1.06	1.06	1.02
NCI-H3122	0.896	0.906	0.93	0.988	1.04	1.08	1.01	1.02	0.119	0.0845	0.0804	0.0955	1.25	0.972	0.919	0.925	0.196	0.199	0.201	0.207
PC-3 [JPC-3]	0.848	0.985	0.883	0.877	0.962	0.978	1.03	0.988	0.774	0.644	0.53	0.664	0.834	0.698	0.773	0.821	1.09	1.32	1.25	1.09
PC-14	0.382	0.322	0.45	0.343	1.04	1.05	1.01	0.973	0.127	0.172	0.151	0.252	1.07	0.727	0.779	0.911	0.13	0.139	0.126	0.179
RERF-LC-KJ	1.08	0.883	0.934	1.01	0.911	0.974	0.951	0.935	1.22	1.2	1.16	1.06	0.5	0.548	0.59	0.463	0.509	0.463	0.483	0.449

Source: the supplement of paper PMC10307832
